In brackets after ≈: the same amount, converted by molar mass.
Columns and labels:
Format in all cases: functional, cell-based
A549 = assay: Cytotoxicity against human A549 cells after 72 hrs; conditions: A549, 72 h
[1] = Cytotoxicity against human KB16 cells after 72 hrs; conditions: KB16, 72 h
P388 = assay: Cytotoxicity against mouse P388 cells after 72 hrs; conditions: P388, 72 h
HT-29 = assay: Cytotoxicity against human HT29 cells after 72 hrs; conditions: HT-29, 72 h

Compound `CC(=O)O[C@H]1C[C@H]2[C@@H](OC(=O)c3ccccc3)[C@@H]3[C@](O)(CO)[C@@H](OC(C)=O)C[C@H](OC(C)=O)[C@@]3(C)[C@@H](OC(C)=O)[C@H](OC(C)=O)C(=C1C)C2(C)C` has an IC50 (A549) of 4.8 mg/L (≈ 6.7 µM), an IC50 [1] of 1 mg/L (≈ 1.4 µM) and an IC50 (P388) of 2.4 mg/L (≈ 3.35 µM). For the same compound, the IC50 (HT-29) was 1.4 mg/L (≈ 1.95 µM).
`CC(=O)O[C@H]1C[C@H]2[C@@H](O)[C@@H]3[C@](O)(COC(=O)c4ccccc4)[C@@H](OC(C)=O)C[C@H](OC(C)=O)[C@@]3(C)[C@@H](OC(C)=O)[C@H](OC(C)=O)C(=C1C)C2(C)C` [TAXUMAIROL A] showed an IC50 (A549) of 1.7 mg/L (≈ 2.37 µM), an IC50 [1] of 0.4 mg/L (≈ 0.558 µM) and an IC50 (P388) of 0.05 mg/L (≈ 0.0698 µM). It also gave an IC50 (HT-29) of 1 mg/L (≈ 1.4 µM).
In the case of `CC(=O)O[C@H]1C[C@@]2(O)[C@@H](OC(C)=O)[C@@H]3[C@@]4(CO4)[C@@H](OC(C)=O)C[C@H](O)[C@@]3(C)[C@@H](O)[C@H](OC(C)=O)C(=C1C)C2(C)C` [TAXUMAIROL B], the IC50 (A549) is reported as over 50 mg/L, the IC50 [1] is reported as 1.4 mg/L (≈ 2.46 µM) and the IC50 (P388) is reported as over 50 mg/L. For the same compound, the IC50 (HT-29) was over 50 mg/L.

Reference: ChEMBL document CHEMBL1158189, “New taxane diterpenoids from the roots of Taxus mairei” (J Nat Prod, 1996)
